Reference: patent US20260207560A1, “PLURALITY OF GRANULES” (priority 2022, published 2026)
Several values for one entry are separate records, joined by “and”; a condition that tells them apart may be missing. Identical values can stand only once.

Key:
[1] = in vivo; cited from earlier work
[2] = Stability of active ingredient in volatile solvents, 20-28 hours at ambient (UPLC assay and impurities); conditions: for Assay (as % of nominal): vial replicates
Protocol: Note the incubation for the stability studies were all performed in a similar way: • All were put into 4 mL amber glass vials. • The Initial samples were not analysed as soon as sampled but instead were frozen at −20° C. until the point of analysing the incubated samples (e.g after 28 days at 25, 40 or 50° C.) to avoid degradation of the active ingredient.
Chemical stability was determined by assay (results in Table 8) and quantification of potential active ingredient related substances (shown in
Table 9). […] The objective was to establish whether any active ingredient-related substances might be increasing as a result of the ambient hold.

[3] = 0.1 M HCl, 24 hour, listed as active ingredient
[4] = 0.1 M HCl, Initial, listed as active ingredient
[5] = 5% SLS aq., 24 hour, listed as active ingredient
[6] = 5% SLS aq., Initial, listed as active ingredient
[7] = Ethanol absolute, 24 hour, listed as active ingredient
[8] = Ethanol absolute, Initial, listed as active ingredient
[9] = pH 3 citric acid buffer, 24 hour
[10] = pH 3 citric acid buffer, 24 hour, listed as active ingredient
[11] = pH 3 citric acid buffer, Initial
[12] = pH 3 citric acid buffer, Initial, listed as active ingredient

## CCS(=O)(=O)Nc1ccc2c(c1)nc(C(C)(C)C)n2CC1CCC(F)(F)CC1 [Compound I, N-(2-(tert-butyl)-1-((4,4-difluorocyclohexyl)methyl)-1H-benzimidazol-5-yl)ethanesulfonamide]
[1]
  CNS-psychoactive effects: does not cause CNS-psychoactive effects
  Effect on appetite: stimulate appetite in a dose-dependent manner
[2]; 0.1 M HCl, 24 hour
  Impurity peak area, RRT 0.38: 0.07 % of Total
  Impurity peak area, RRT 0.61: <0.05 % of Total
  Impurity peak area, RRT 0.83: 0.11 % of Total
  Impurity peak area, RRT 0.85: 0.07 % of Total
  Impurity peak area, RRT 0.92: 0.09 % of Total
[2]; [3]
  Impurity peak area, RRT 0.62: <0.05 % of Total and 0.05 % of Total
  Impurity peak area, RRT 0.84*: 0.27 % of Total and 0.34 % of Total
  Impurity peak area, RRT 0.86^$ (PDA spectra unrelated to the active ingredient): <0.05 % of Total and 0.05 % of Total
  Impurity peak area, RRT 0.98* (first row): 0.24 % of Total and 0.22 % of Total
  Impurity peak area, RRT 0.98* (second row): 0.12 % of Total and 0.13 % of Total
  Impurity peak area, RRT 1.04*: 0.05 % of Total and <0.05 % of Total
  Impurity peak area, RRT 1.23*: 0.16 % of Total and 0.15 % of Total
  Impurity peak area, RRT 1.24*: <0.05 % of Total and 0.05 % of Total
  Impurity peak area, RRT 1.35*: 0.07 % of Total and 0.06 % of Total
  Impurity peak area, RRT 1.36*: <0.05 % of Total and 0.05 % of Total
  Impurity peak area, Total: 1.00 % of Total and 1.44 % of Total
  Impurity peak area, Total excluding artifact: 1.00 % of Total and 1.16 % of Total
[2]; 0.1M HCl, 24 hours ambient
  Assay (as % of nominal), Mean: 106.7 % of nominal
[2]; 0.1M HCl, 24 hours ambient, listed as active ingredient
  Assay (as % of nominal): 107.7 % of nominal and 105.4 % of nominal
[2]; 0.1 M HCl, Initial
  Assay (as % of nominal), Mean: 114.4 % of nominal
  Impurity peak area, RRT 0.41: <0.05 % of Total
  Impurity peak area, RRT 0.98* (first row): 0.22 % of Total
  Impurity peak area, RRT 0.98* (second row): 0.12 % of Total
  Impurity peak area, RRT 1.04*: <0.05 % of Total
  Impurity peak area, RRT 1.24*: <0.05 % of Total
[2]; [4]
  Impurity peak area, RRT 0.38: 0.10 % of Total and 0.08 % of Total
  Impurity peak area, RRT 0.61: 0.13 % of Total and 0.08 % of Total
  Impurity peak area, RRT 0.62: 0.15 % of Total and 0.09 % of Total
  Impurity peak area, RRT 0.84*: 0.31 % of Total and 0.26 % of Total
  Impurity peak area, RRT 0.85: <0.05 % of Total and 0.08 % of Total
  Impurity peak area, RRT 0.92: 0.18 % of Total and 0.14 % of Total
  Impurity peak area, RRT 1.23*: 0.22 % of Total and 0.23 % of Total
  Impurity peak area, RRT 1.35*: 0.05 % of Total and 0.06 % of Total
  Impurity peak area, RRT 1.36*: 0.05 % of Total and 0.06 % of Total
  Impurity peak area, Total: 2.00 % of Total and 1.47 % of Total
  Impurity peak area, Total excluding artifact: 1.15 % of Total and 1.17 % of Total
[2]; 0.1M HCl, Initial, listed as active ingredient
  Assay (as % of nominal): 100.6 % of nominal and 127.9 % of nominal
[2]; 5% SLS aq., 24 hour
  Impurity peak area, RRT 0.41: <0.05 % of Total
  Impurity peak area, RRT 0.62: 0.08 % of Total
  Impurity peak area, RRT 0.85: NBD
  Impurity peak area, RRT 0.92: 0.05 % of Total
  Impurity peak area, RRT 0.98* (first row): 0.24 % of Total
  Impurity peak area, RRT 1.04*: 0.06 % of Total
  Impurity peak area, RRT 1.24*: <0.05 % of Total
  Impurity peak area, RRT 1.36*: <0.05 % of Total
[2]; [5]
  Impurity peak area, RRT 0.38: 0.10 % of Total and 0.07 % of Total
  Impurity peak area, RRT 0.61: 0.07 % of Total and 0.06 % of Total
  Impurity peak area, RRT 0.83: 0.30 % of Total and 0.16 % of Total
  Impurity peak area, RRT 0.84*: 0.32 % of Total and 0.30 % of Total
  Impurity peak area, RRT 0.86^$ (PDA spectra unrelated to the active ingredient): 0.05 % of Total and 0.07 % of Total
  Impurity peak area, RRT 0.98* (second row): 0.13 % of Total and 0.12 % of Total
  Impurity peak area, RRT 1.23*: 0.06 % of Total and 0.07 % of Total
  Impurity peak area, RRT 1.35*: 0.07 % of Total and 0.06 % of Total
  Impurity peak area, Total: 1.53 % of Total and 1.34 % of Total
  Impurity peak area, Total excluding artifact: 0.93 % of Total and 0.90 % of Total
[2]; 5% SLS aq., 24 hours ambient
  Assay (as % of nominal), Mean: 100.8 % of nominal
[2]; 5% SLS aq., 24 hours ambient, listed as active ingredient
  Assay (as % of nominal): 99.4 % of nominal and 102.3 % of nominal
[2]; 5% SLS aq., Initial
  Assay (as % of nominal), Mean: 103.3 % of nominal
  Impurity peak area, RRT 0.84*: 0.32 % of Total
  Impurity peak area, RRT 0.86^$ (PDA spectra unrelated to the active ingredient): <0.05 % of Total
  Impurity peak area, RRT 0.98* (first row): 0.24 % of Total
  Impurity peak area, RRT 0.98* (second row): 0.12 % of Total
  Impurity peak area, RRT 1.24*: <0.05 % of Total
  Impurity peak area, RRT 1.36*: 0.05 % of Total
[2]; [6]
  Impurity peak area, RRT 0.92: 0.05 % of Total and <0.05 % of Total
  Impurity peak area, RRT 1.04*: 0.05 % of Total and <0.05 % of Total
  Impurity peak area, RRT 1.23*: 0.06 % of Total and 0.07 % of Total
  Impurity peak area, RRT 1.35*: 0.07 % of Total and 0.08 % of Total
  Impurity peak area, Total: 0.96 % of Total and 0.88 % of Total
  Impurity peak area, Total excluding artifact: 0.96 % of Total and 0.88 % of Total
  Assay (as % of nominal): 105.0 % of nominal and 101.7 % of nominal
[2]; Ethanol Absolute, 24 hours ambient
  Assay (as % of nominal), Mean: 99.0 % of nominal
[2]; Ethanol Absolute, 24 hours ambient, listed as active ingredient
  Assay (as % of nominal): 100.2 % of nominal and 97.7 % of nominal
[2]; Ethanol Absolute, Initial
  Assay (as % of nominal): 107.1 % of nominal
[2]; Ethanol Absolute, Initial, listed as active ingredient
  Assay (as % of nominal): 90.6 % of nominal
[2]; Ethanol absolute, 24 hour
  Impurity peak area, RRT 0.86^$ (PDA spectra unrelated to the active ingredient): <0.05 % of Total
  Impurity peak area, RRT 0.92: <0.05 % of Total
  Impurity peak area, RRT 1.04*: <0.05 % of Total
  Impurity peak area, RRT 1.23*: 0.07 % of Total
  Impurity peak area, RRT 1.24*: <0.05 % of Total
  Impurity peak area, RRT 1.35*: 0.08 % of Total
  Impurity peak area, RRT 1.36*: 0.06 % of Total
[2]; [7]
  Impurity peak area, RRT 0.84*: 0.33 % of Total and 0.35 % of Total
  Impurity peak area, RRT 0.98* (first row): 0.22 % of Total and 0.20 % of Total
  Impurity peak area, RRT 0.98* (second row): 0.13 % of Total and 0.14 % of Total
  Impurity peak area, Total: 0.89 % of Total and 0.90 % of Total
  Impurity peak area, Total excluding artifact: 0.89 % of Total and 0.90 % of Total
[2]; Ethanol absolute, Initial
  Assay (as % of nominal), Mean: 98.8 % of nominal
  Impurity peak area, RRT 0.38: 0.07 % of Total
  Impurity peak area, RRT 0.61: 0.08 % of Total
  Impurity peak area, RRT 0.62: 0.09 % of Total
  Impurity peak area, RRT 0.83: 0.18 % of Total
  Impurity peak area, RRT 0.92: <0.05 % of Total
  Impurity peak area, RRT 0.98* (second row): 0.12 % of Total
  Impurity peak area, RRT 1.24*: <0.05 % of Total
  Impurity peak area, RRT 1.36*: 0.06 % of Total
[2]; [8]
  Impurity peak area, RRT 0.84*: 0.37 % of Total and 0.33 % of Total
  Impurity peak area, RRT 0.98* (first row): 0.20 % of Total and 0.22 % of Total
  Impurity peak area, RRT 1.04*: 0.05 % of Total and <0.05 % of Total
  Impurity peak area, RRT 1.23*: 0.08 % of Total and 0.07 % of Total
  Impurity peak area, RRT 1.35*: 0.08 % of Total and 0.09 % of Total
  Impurity peak area, Total: 0.96 % of Total and 1.47 % of Total
  Impurity peak area, Total excluding artifact: 0.96 % of Total and 0.89 % of Total
[2]; four volatile solvents, 20-28 hour hold at ambient temperature
  Degradation of the active ingredient: no evidence for any active ingredient degradation
[2]; four volatile solvents, initial and 20-28 hour ambient hold
  Total impurities, highest in any case: ≤ 1.17 % of the total peak area
[2]; [9]
  Impurity peak area, RRT 0.92: 0.06 % of Total
  Impurity peak area, RRT 1.04*: 0.09 % of Total
  Impurity peak area, RRT 1.23*: 0.10 % of Total
[2]; [10]
  Impurity peak area, RRT 0.38: 0.26 % of Total and 0.14 % of Total
  Impurity peak area, RRT 0.61: 0.07 % of Total and 0.10 % of Total
  Impurity peak area, RRT 0.62: 0.07 % of Total and 0.11 % of Total
  Impurity peak area, RRT 0.83: 0.30 % of Total and 0.16 % of Total
  Impurity peak area, RRT 0.84*: 0.30 % of Total and 0.37 % of Total
  Impurity peak area, RRT 0.98* (first row): 0.22 % of Total and 0.21 % of Total
  Impurity peak area, RRT 0.98* (second row): 0.13 % of Total and 0.14 % of Total
  Impurity peak area, RRT 1.24*: <0.05 % of Total and 0.06 % of Total
  Impurity peak area, Total: 1.88 % of Total and 1.82 % of Total
  Impurity peak area, Total excluding artifact: 0.90 % of Total and 1.03 % of Total
[2]; pH 3 citric acid buffer, 24 hours ambient
  Assay (as % of nominal), Mean: 95.8 % of nominal
[2]; pH 3 citric acid buffer, 24 hours ambient, listed as active ingredient
  Assay (as % of nominal): 109.6 % of nominal and 82.1 % of nominal
[2]; [11]
  Assay (as % of nominal), Mean: 109.6 % of nominal
  Impurity peak area, RRT 0.38: 0.27 % of Total
  Impurity peak area, RRT 0.41: 0.26 % of Total
  Impurity peak area, RRT 0.61: 0.05 % of Total
  Impurity peak area, RRT 0.62: 0.06 % of Total
  Impurity peak area, RRT 0.83: 0.21 % of Total
  Impurity peak area, RRT 0.86^$ (PDA spectra unrelated to the active ingredient): <0.05 % of Total
  Impurity peak area, RRT 1.04*: 0.09 % of Total
  Impurity peak area, RRT 1.24*: <0.05 % of Total
[2]; [12]
  Impurity peak area, RRT 0.92: 0.10 % of Total and 0.09 % of Total
  Impurity peak area, RRT 0.98* (first row): 0.23 % of Total and 0.21 % of Total
  Impurity peak area, RRT 0.98* (second row): 0.11 % of Total and 0.13 % of Total
  Impurity peak area, RRT 1.23*: 0.16 % of Total and 0.12 % of Total
  Impurity peak area, Total: 1.79 % of Total and 0.97 % of Total
  Impurity peak area, Total excluding artifact: 0.94 % of Total and 0.97 % of Total
  Assay (as % of nominal): 108.8 % of nominal and 110.4 % of nominal
